In US9708336B2, “Metallo-beta-lactamase inhibitors” (priority 2014, dated 2017):
Like-named read-outs stand apart in the source and are kept apart here.

Tests used:
[1] = target: NDM-1 (Klebsiella pneumoniae, UniProt C7C422); test: biochemical; assay type: biochemical; conditions: read-out: NDM-1 IC50
[2] = target: IMP-1 (Serratia marcescens, UniProt P52699); test: biochemical; assay type: biochemical; conditions: read-out: IMP-1 IC50
[3] = target: VIM-1 (Pseudomonas aeruginosa (strain ATCC 15692 / DSM 22644 / CIP 104116 / JCM 14847 / LMG 12228 / 1C / PRS 101 / PAO1), UniProt A0A0F7KYQ8); test: Enzyme activity: determination of IC50, fluorescence assay with CCF2-FA substrate (VIM-1); assay type: biochemical
[4] = tested on: Escherichia coli expressing NDM-1 (CLB30016); test: Antibiotic potentiation activity: synergistic concentration (MITC95) with imipenem, OD600 growth; assay type: cell-based; conditions: for Escherichia coli expressing NDM-1 (CLB 30016) MITC95: concentration giving 95% inhibition of bacterial growth
Summary of the method: (§1)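 In 1.1× CAMHB, clinical isolates from overnight plates were challenged with test compound alongside imipenem at an assay concentration of 4 μg/ml, sometimes 1 μg/ml. Plates sat covered at 35 °C for 22–24 h prior to spectrophotometric reading.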

[5] = tested on: Klebsiella pneumoniae expressing VIM-1 (IHMA599644); test: as above; assay type: cell-based; conditions: for Klebsiella pneumoniae expressing VIM-1 (IHMA 599644) MITC95: concentration giving 95% inhibition of bacterial growth
Summary of the method: as §1

[6] = tested on: Serratia marcescens expressing IMP-1 (CL5741); test: as above; assay type: cell-based; conditions: for Serratia marcescens expressing IMP-1 (CL5741) MITC95: concentration giving 95% inhibition of bacterial growth
Summary of the method: as §1

[7] = fluorescence assay with CCF2-FA substrate
[8] = fluorescence assay with CCF2-FA substrate, read-out: VIM-1 IC50
[9] = CLB30016 (NDM-1), 95% inhibition of bacterial growth
[10] = IHMA599644 (VIM-1), 95% inhibition of bacterial growth
[11] = CL5741 (IMP-1), 95% inhibition of bacterial growth
[12] = NDM-1 enzyme, CCF2-FA fluorescence assay
[13] = IMP-1 enzyme, CCF2-FA fluorescence assay
[14] = VIM-1 enzyme, CCF2-FA fluorescence assay, read-out: VIM-1 IC50
[15] = Escherichia coli expressing NDM-1 (CLB30016), 95% growth inhibition
[16] = Klebsiella pneumoniae expressing VIM-1 (IHMA599644), 95% growth inhibition
[17] = Serratia marcescens expressing IMP-1 (CL5741), 95% growth inhibition
[18] = NDM-1 enzyme, CCF2-FA substrate
[19] = IMP-1 enzyme, CCF2-FA substrate
[20] = VIM-1 enzyme, CCF2-FA substrate, read-out: VIM-1 IC50
[21] = (CLB30016, NDM-1), 95% growth inhibition
[22] = Klebsiella pneumoniae IHMA599644 (VIM-1), 95% growth inhibition
[23] = Serratia marcescens CL5741 (IMP-1), 95% growth inhibition

IMP-1, sequence (P52699 whole entry, looked up): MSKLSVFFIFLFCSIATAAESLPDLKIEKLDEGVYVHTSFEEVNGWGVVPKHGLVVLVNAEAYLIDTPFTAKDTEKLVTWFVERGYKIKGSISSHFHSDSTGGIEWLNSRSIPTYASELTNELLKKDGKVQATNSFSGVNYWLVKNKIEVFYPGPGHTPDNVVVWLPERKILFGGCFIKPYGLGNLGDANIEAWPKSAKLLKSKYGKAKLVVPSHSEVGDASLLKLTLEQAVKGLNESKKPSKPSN
NDM-1, sequence (C7C422 whole entry, looked up, species assumed): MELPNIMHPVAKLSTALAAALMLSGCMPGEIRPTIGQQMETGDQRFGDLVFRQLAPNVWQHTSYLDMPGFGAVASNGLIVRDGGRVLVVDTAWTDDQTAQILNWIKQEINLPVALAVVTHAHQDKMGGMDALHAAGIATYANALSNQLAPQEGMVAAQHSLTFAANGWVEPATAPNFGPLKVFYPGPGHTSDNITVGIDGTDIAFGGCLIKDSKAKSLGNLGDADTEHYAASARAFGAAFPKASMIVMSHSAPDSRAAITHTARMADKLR

Nc1nccc2cc(-c3ccc(C(F)(F)F)c(S(N)(=O)=O)c3-c3nnn[nH]3)ccc12 [Example 751, 3-(1-aminoisoquinolin-6-yl)-2-(1H-tetrazol-5-yl)-6-(trifluoromethyl)benzenesulfon-amide]
IC50 [1, 7]: 0.962 nM | IC50 [2, 7]: 5.63 nM | IC50 [3, 8]: 0.108 nM | Escherichia coli MITC95 [4, 9]: 0.7813 µM | Klebsiella pneumoniae MITC95 [5, 10]: 3.125 µM | Serratia marcescens MITC95 [6, 11]: 3.125 µM

Nc1cnc2cc(-c3cccc(S(N)(=O)=O)c3-c3nnn[nH]3)ccc2c1 [Example 416, 3-(3-amino-7-quinolyl)-2-(1H-tetrazol-5-yl)benzenesulfonamide]
IC50 [1, 12]: 2.42 nM | IC50 [2, 13]: 56.5 nM | IC50 [3, 14]: 13.7 nM | Escherichia coli MITC95 [4, 15]: 2.344 µM | Klebsiella pneumoniae MITC95 [5, 16]: 25 µM | Serratia marcescens MITC95 [6, 17]: 6.25 µM

Nc1nc2cccc(-c3cccc(S(N)(=O)=O)c3-c3nn[nH]n3)c2[nH]1 [Example 428, 3-(2-amino-1H-benzo[d]imidazol-7-yl)-2-(2H-tetrazol-5-yl)benzenesulfonamide]
IC50 [1, 12]: 0.683 nM | IC50 [2, 13]: 345 nM | IC50 [3, 14]: 17.3 nM | Escherichia coli MITC95 [4, 15]: 0.0625 µM | Klebsiella pneumoniae MITC95 [5, 16]: 1.531 µM | Serratia marcescens MITC95 [6, 17]: 6.25 µM

CN(C)CCC1CCN(c2ccnc(S(N)(=O)=O)c2-c2nnn[nH]2)CC1 [Example 219, 4-{4-[2-(dimethylamino)ethyl]piperidin-1-yl}-3-(1H-tetrazol-5-yl)pyridine-2-sulfonamide]
IC50 [1, 7]: 1060 nM | IC50 [2, 7]: 10400 nM | IC50 [3, 8]: 458 nM | Escherichia coli expressing NDM-1 (CLB 30016) MITC95 [4]: 4.688 µM | Klebsiella pneumoniae expressing VIM-1 (IHMA 599644) MITC95 [5]: 12.5 µM | Serratia marcescens expressing IMP-1 (CL5741) MITC95 [6]: 37.5 µM

NS(=O)(=O)c1cccc(-c2cnc3n2CCCC3)c1-c1nnn[nH]1 [Example 419, 3-(5,6,7,8-tetrahydroimidazo[1,2-a]pyridin-3-yl)-2-(1H-tetrazol-5-yl)benzenesulfonamide]
IC50 [1, 12]: 51.9 nM | IC50 [2, 13]: 1040 nM | IC50 [3, 14]: 469 nM | Escherichia coli MITC95 [4, 15]: 0.25 µM | Klebsiella pneumoniae MITC95 [5, 16]: 25 µM | Serratia marcescens MITC95 [6, 17]: 25 µM

Nc1nc2c(-c3ccc(C(F)CO)c(S(N)(=O)=O)c3-c3nn[nH]n3)cccc2s1 (stereo not drawn) [Example 532, 3-(2-Aminobenzo[d]thiazol-4-yl)-6-(1-fluoro-2-hydroxyethyl)-2-(2H-tetrazol-5-yl)benzenesulfonamide]
IC50 [1, 18]: 0.598 nM | IC50 [2, 19]: 6.42 nM | IC50 [3, 20]: 3.96 nM | Escherichia coli MITC95 [4, 21]: 12.5 µM | Klebsiella pneumoniae MITC95 [5, 22]: 12.5 µM | Serratia marcescens MITC95 [6, 23]: 12.5 µM

N=C(N)N[C@H]1CC[C@H](c2ccc(C(F)(F)F)c(S(N)(=O)=O)c2-c2nnn[nH]2)CC1 [Example 823, 1-[4-[3-sulfamoyl-2-(1H-tetrazol-5-yl)-4-(trifluoromethyl)phenyl]cyclohexyl] guanidine]
IC50 [1, 7]: 17.5 nM | IC50 [2, 7]: 25.4 nM | IC50 [3, 8]: 0.666 nM | Escherichia coli MITC95 [4, 9]: 1.172 µM | Klebsiella pneumoniae MITC95 [5, 10]: 1.172 µM | Serratia marcescens MITC95 [6, 11]: 0.3906 µM

Nc1ncc2c(-c3ccc(C(F)(F)F)c(S(N)(=O)=O)c3-c3nn[nH]n3)cccc2n1 [Example 556, 3-(2-aminoquinazolin-5-yl)-2-(2H-tetrazol-5-yl)-6-(trifluoromethyl)benzenesulfonamide]
IC50 [1, 18]: 0.125 nM | IC50 [2, 19]: 2.97 nM | IC50 [3, 20]: 0.122 nM | Escherichia coli MITC95 [4, 21]: 25 µM | Klebsiella pneumoniae MITC95 [5, 22]: 12.5 µM | Serratia marcescens MITC95 [6, 23]: 12.5 µM

NS(=O)(=O)c1cccc(-c2cnc(NC3CCCC3)nc2)c1-c1nnn[nH]1 [Example 124, 3-(2-(cyclopentylamino)pyrimidin-5-yl)-2-(1H-tetrazol-5-yl)benzenesulfonamide]
IC50 [1, 7]: 4.34 nM | IC50 [2, 7]: 68.9 nM | IC50 [3, 8]: 259 nM | Escherichia coli expressing NDM-1 (CLB 30016) MITC95 [4]: 2.344 µM | Klebsiella pneumoniae expressing VIM-1 (IHMA 599644) MITC95 [5]: >200 µM | Serratia marcescens expressing IMP-1 (CL5741) MITC95 [6]: 6.25 µM

NS(=O)(=O)c1cccc(-c2ccc(CNCC(=O)NO)cc2)c1-c1nnn[nH]1 [Example 330, N-hydroxy-2-(((3′-sulfamoyl-2′-(1H-tetrazol-5-yl)-[1,1′-biphenyl]-4-yl)methyl)amino)acetamide]
IC50 [1, 12]: 12.5 nM | IC50 [2, 13]: 118 nM | IC50 [3, 14]: 401 nM | Escherichia coli MITC95 [4, 15]: 1.563 µM | Klebsiella pneumoniae MITC95 [5, 16]: 50 µM | Serratia marcescens MITC95 [6, 17]: 4.688 µM

N#Cc1cncc(-c2cccc(S(N)(=O)=O)c2-c2nnn[nH]2)c1 [Example 136, 3-(5-cyanopyridin-3-yl)-2-(1H-tetrazol-5-yl)benzenesulfonamide]
IC50 [1, 7]: 24.8 nM | IC50 [2, 7]: 1690 nM | IC50 [3, 8]: 150 nM | Escherichia coli expressing NDM-1 (CLB 30016) MITC95 [4]: 1.563 µM | Klebsiella pneumoniae expressing VIM-1 (IHMA 599644) MITC95 [5]: 37.5 µM | Serratia marcescens expressing IMP-1 (CL5741) MITC95 [6]: 25 µM

Cn1cncc1C1CCN(c2ccnc(S(N)(=O)=O)c2-c2nnn[nH]2)CC1 [Example 230, 4-[4-(1-methyl-1H-imidazol-5-yl)piperidin-1-yl]-3-(1H-tetrazol-5-yl)pyridine-2-sulfonamide]
IC50 [1, 7]: 206 nM | IC50 [2, 7]: 797 nM | IC50 ([3]; VIM-1 IC50, fluorescence assay with CCF2-FA substrate): 164 nM | Escherichia coli expressing NDM-1 (CLB 30016) MITC95 [4]: 1.563 µM | Klebsiella pneumoniae expressing VIM-1 (IHMA 599644) MITC95 [5]: 37.5 µM | Serratia marcescens expressing IMP-1 (CL5741) MITC95 [6]: 18.75 µM

NS(=O)(=O)c1cccc(-c2csc(-c3ccncc3)n2)c1-c1nnn[nH]1 [Example 409, 3-[2-(4-pyridyl)thiazol-4-yl]-2-(1H-tetrazol-5-yl)benzenesulfonamide]
IC50 [1, 12]: 26.9 nM | IC50 [2, 13]: 445 nM | IC50 [3, 14]: 237 nM | Escherichia coli MITC95 [4, 15]: 1.563 µM | Klebsiella pneumoniae MITC95 [5, 16]: >200 µM | Serratia marcescens MITC95 [6, 17]: 12.5 µM

Nc1cncc(-c2cccc(S(N)(=O)=O)c2-c2nnn[nH]2)n1 [Example 137, 3-(6-aminopyrazin-2-yl)-2-(1H-tetrazol-5-yl)benzenesulfonamide]
IC50 [1, 7]: 30.7 nM | IC50 [2, 7]: 2530 nM | IC50 [3, 8]: 561 nM | Escherichia coli expressing NDM-1 (CLB 30016) MITC95 [4]: 1.172 µM | Klebsiella pneumoniae expressing VIM-1 (IHMA 599644) MITC95 [5]: 25 µM | Serratia marcescens expressing IMP-1 (CL5741) MITC95 [6]: 25 µM

NS(=O)(=O)c1c(C(F)(F)F)ccc([C@H]2CC[C@H](NC3CCCNCC3)CC2)c1-c1nnn[nH]1 (stereo partly drawn) [Example 695, 3-[4-(azepan-4-ylamino)cyclohexyl]-2-(1H-tetrazol-5-yl)-6-(trifluoromethyl)benzene sulfonamide]
IC50 [1, 18]: 13.6 nM | IC50 [2, 19]: 42.3 nM | IC50 [3, 20]: 13.2 nM | Escherichia coli MITC95 [4, 21]: 0.7813 µM | Klebsiella pneumoniae MITC95 [5, 22]: 6.25 µM | Serratia marcescens MITC95 [6, 23]: 3.125 µM

Nc1ccnc2ccc(-c3cccc(S(N)(=O)=O)c3-c3nnn[nH]3)cc12 [Example 401, 3-(4-amino-6-quinolyl)-2-(1H-tetrazol-5-yl)benzenesulfonamide]
IC50 [1, 12]: 7.31 nM | IC50 [2, 13]: 646 nM | IC50 ([3]; VIM-1 IC50, VIM-1 enzyme, CCF2-FA fluorescence assay): 7.57 nM | Escherichia coli MITC95 [4, 15]: 0.09375 µM | Klebsiella pneumoniae MITC95 [5, 16]: 0.8906 µM | Serratia marcescens MITC95 [6, 17]: 6.25 µM

NS(=O)(=O)c1cccc(-c2ccc(CN3CCC(C(=O)O)C3)cc2)c1-c1nnn[nH]1 (stereo not drawn) [Example 343, 1-{[3′-sulfamoyl-2′-(1H-tetrazol-5-yl)biphenyl-4-yl]methyl}pyrrolidine-3-carboxylic acid]
IC50 [1, 12]: 24.7 nM | IC50 [2, 13]: 373 nM | IC50 [3, 14]: 1180 nM | Escherichia coli MITC95 [4, 15]: 1.563 µM | Klebsiella pneumoniae MITC95 [5, 16]: 100 µM | Serratia marcescens MITC95 [6, 17]: 9.375 µM

CN1CCC(NCc2ccc(-c3cccc(S(N)(=O)=O)c3-c3nnn[nH]3)cc2)C1 (stereo not drawn) [Example 332, 4′-(((1-methylpyrrolidin-3-yl)amino)methyl)-2-(1H-tetrazol-5-yl)-[1,1′-biphenyl]-3-sulfonamide]
IC50 [1, 12]: 11.5 nM | IC50 [2, 13]: 192 nM | IC50 [3, 14]: 554 nM | Escherichia coli MITC95 [4, 15]: 0.5859 µM | Klebsiella pneumoniae MITC95 [5, 16]: 100 µM | Serratia marcescens MITC95 [6, 17]: 3.125 µM

NS(=O)(=O)c1c(C(F)(F)F)ccc(-c2ccc(C3CCN(C[C@@H]4CNCCO4)CC3)cc2)c1-c1nnn[nH]1 [Example 678, 4′-{1-[(2S)-morpholin-2-ylmethyl]piperidin-4-yl}-2-(1H-tetrazol-5-yl)-4-(trifluoromethyl)biphenyl-3-sulfonamide]
IC50 [1, 18]: 15.3 nM | IC50 [2, 19]: 5 nM | IC50 [3, 20]: 20.7 nM | Escherichia coli MITC95 [4, 21]: 9.375 µM | Klebsiella pneumoniae MITC95 [5, 22]: 150 µM | Serratia marcescens MITC95 [6, 23]: 6.25 µM
